Measurements as given in the supplement of paper PMC4862054.

test system: MDA-MB-436; experiment: normalised response (% of control), CellTox Green; higher = less cell death (100 = DMSO, 0 = benzethonium chloride kill control); conditions: incubation time: 72 h
How it was run: (§1)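 A 20 µl suspension of breast cancer cells was seeded into each well of 384-well plates containing compound at 5 concentrations in 10-fold steps over a compound-specific 10,000-fold range. After 72 h incubation, CellTox Green fluorescence (485/520 nm) was read first, and CellTiter-Glo luminescence was read after 10 min at room temperature. Each plate was normalised against 0.1 % DMSO (100) and a positive kill control (0), and each value is the normalised signal at one concentration.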

| SMILES | normalised response |
| --- | --- |
| Cc1cnc(NC(=O)Nc2cc(Br)c(C)cc2OC[C@@H]2CNCCO2)cn1 [Rabusertib] (10 nM) | 107% |
| CCCCC(=O)OCC(=O)[C@]1(O)Cc2c(O)c3c(c(O)c2[C@@H](O[C@H]2C[C@H](NC(=O)C(F)(F)F)[C@H](O)[C@H](C)O2)C1)C(=O)c1c(OC)cccc1C3=O [Valrubicin] (50 nM) | 101% |
| CCCS(=O)(=O)Nc1ccc(F)c(C(=O)c2c[nH]c3ncc(-c4ccc(Cl)cc4)cc23)c1F [Vemurafenib] (100 nM) | 72.4% |
| CC[C@H](Nc1ncnc2[nH]cnc12)c1nc2cccc(F)c2c(=O)n1-c1ccccc1 [GS-1101] (100 nM) | 80.1% |
| CC(=O)Nc1cccc(-n2c(=O)n(C3CC3)c(=O)c3c(Nc4ccc(I)cc4F)n(C)c(=O)c(C)c32)c1 [Trametinib] (2.5 nM) | 101% |
| Nc1ccccc1NC(=O)c1ccc(CNC(=O)OCc2cccnc2)cc1 [Entinostat] (100 nM) | 80.2% |

test system: HCC1143; experiment: as above; conditions: incubation time: 72 h
How it was run: as §1

| SMILES | normalised response |
| --- | --- |
| O=C(O)CCCCC(CCSCc1ccccc1)SCc1ccccc1 (stereo not given) [CPI-613] (100 nM) | 73.1% |
| CCCCC(=O)OCC(=O)[C@]1(O)Cc2c(O)c3c(c(O)c2[C@@H](O[C@H]2C[C@H](NC(=O)C(F)(F)F)[C@H](O)[C@H](C)O2)C1)C(=O)c1c(OC)cccc1C3=O [Valrubicin] (50 nM) | 111% |
| N#Cc1ccc(C(c2ccc(C#N)cc2)n2cncn2)cc1 [Letrozole] (100 nM) | 108% |
| CCCS(=O)(=O)Nc1ccc(F)c(C(=O)c2c[nH]c3ncc(-c4ccc(Cl)cc4)cc23)c1F [Vemurafenib] (100 nM) | 82.2% |
| CC[C@H](Nc1ncnc2[nH]cnc12)c1nc2cccc(F)c2c(=O)n1-c1ccccc1 [GS-1101] (100 nM) | 107% |
| CC(=O)Nc1cccc(-n2c(=O)n(C3CC3)c(=O)c3c(Nc4ccc(I)cc4F)n(C)c(=O)c(C)c32)c1 [Trametinib] (2.5 nM) | 112% |
| Nc1ccccc1NC(=O)c1ccc(CNC(=O)OCc2cccnc2)cc1 [Entinostat] (100 nM) | 67.2% |

test system: CAL-85-1; experiment: as above; conditions: incubation time: 72 h
How it was run: as §1

| SMILES | normalised response |
| --- | --- |
| O=C(O)CCCCC(CCSCc1ccccc1)SCc1ccccc1 (stereo not given) [CPI-613] (100 nM) | 104% |
| Nc1nc2[nH]cc(CCc3ccc(C(=O)N[C@@H](CCC(=O)O)C(=O)O)cc3)c2c(=O)[nH]1 [Pemetrexed] (100 nM) | 103% |
| Cc1cnc(NC(=O)Nc2cc(Br)c(C)cc2OC[C@@H]2CNCCO2)cn1 [Rabusertib] (10 nM) | 95.2% |
| CCCCC(=O)OCC(=O)[C@]1(O)Cc2c(O)c3c(c(O)c2[C@@H](O[C@H]2C[C@H](NC(=O)C(F)(F)F)[C@H](O)[C@H](C)O2)C1)C(=O)c1c(OC)cccc1C3=O [Valrubicin] (50 nM) | 118% |
| N#Cc1ccc(C(c2ccc(C#N)cc2)n2cncn2)cc1 [Letrozole] (100 nM) | 114% |
| CCCS(=O)(=O)Nc1ccc(F)c(C(=O)c2c[nH]c3ncc(-c4ccc(Cl)cc4)cc23)c1F [Vemurafenib] (100 nM) | 102% |
| CC[C@H](Nc1ncnc2[nH]cnc12)c1nc2cccc(F)c2c(=O)n1-c1ccccc1 [GS-1101] (100 nM) | 93.9% |
| CC(=O)Nc1cccc(-n2c(=O)n(C3CC3)c(=O)c3c(Nc4ccc(I)cc4F)n(C)c(=O)c(C)c32)c1 [Trametinib] (2.5 nM) | 86.5% |
| Nc1ccccc1NC(=O)c1ccc(CNC(=O)OCc2cccnc2)cc1 [Entinostat] (100 nM) | 103% |

test system: DU-4475; experiment: as above; conditions: incubation time: 72 h
How it was run: as §1

| SMILES | normalised response |
| --- | --- |
| O=C(O)CCCCC(CCSCc1ccccc1)SCc1ccccc1 (stereo not given) [CPI-613] (100 nM) | 101% |
| Nc1nc2[nH]cc(CCc3ccc(C(=O)N[C@@H](CCC(=O)O)C(=O)O)cc3)c2c(=O)[nH]1 [Pemetrexed] (100 nM) | 97.7% |
| Cc1cnc(NC(=O)Nc2cc(Br)c(C)cc2OC[C@@H]2CNCCO2)cn1 [Rabusertib] (10 nM) | 106% |
| CCCCC(=O)OCC(=O)[C@]1(O)Cc2c(O)c3c(c(O)c2[C@@H](O[C@H]2C[C@H](NC(=O)C(F)(F)F)[C@H](O)[C@H](C)O2)C1)C(=O)c1c(OC)cccc1C3=O [Valrubicin] (50 nM) | 109% |
| N#Cc1ccc(C(c2ccc(C#N)cc2)n2cncn2)cc1 [Letrozole] (100 nM) | 101% |
| CCCS(=O)(=O)Nc1ccc(F)c(C(=O)c2c[nH]c3ncc(-c4ccc(Cl)cc4)cc23)c1F [Vemurafenib] (100 nM) | 96.1% |
| CC[C@H](Nc1ncnc2[nH]cnc12)c1nc2cccc(F)c2c(=O)n1-c1ccccc1 [GS-1101] (100 nM) | 97.6% |
| CC(=O)Nc1cccc(-n2c(=O)n(C3CC3)c(=O)c3c(Nc4ccc(I)cc4F)n(C)c(=O)c(C)c32)c1 [Trametinib] (2.5 nM) | 82.8% |
| Nc1ccccc1NC(=O)c1ccc(CNC(=O)OCc2cccnc2)cc1 [Entinostat] (100 nM) | 100% |

test system: CAL-148; experiment: as above; conditions: incubation time: 72 h
How it was run: as §1

| SMILES | normalised response |
| --- | --- |
| O=C(O)CCCCC(CCSCc1ccccc1)SCc1ccccc1 (stereo not given) [CPI-613] (100 nM) | 104% |
| Nc1nc2[nH]cc(CCc3ccc(C(=O)N[C@@H](CCC(=O)O)C(=O)O)cc3)c2c(=O)[nH]1 [Pemetrexed] (100 nM) | 99.7% |
| Cc1cnc(NC(=O)Nc2cc(Br)c(C)cc2OC[C@@H]2CNCCO2)cn1 [Rabusertib] (10 nM) | 98.4% |
| CCCCC(=O)OCC(=O)[C@]1(O)Cc2c(O)c3c(c(O)c2[C@@H](O[C@H]2C[C@H](NC(=O)C(F)(F)F)[C@H](O)[C@H](C)O2)C1)C(=O)c1c(OC)cccc1C3=O [Valrubicin] (50 nM) | 76.3% |
| N#Cc1ccc(C(c2ccc(C#N)cc2)n2cncn2)cc1 [Letrozole] (100 nM) | 87.3% |
| CCCS(=O)(=O)Nc1ccc(F)c(C(=O)c2c[nH]c3ncc(-c4ccc(Cl)cc4)cc23)c1F [Vemurafenib] (100 nM) | 97.3% |
| CC[C@H](Nc1ncnc2[nH]cnc12)c1nc2cccc(F)c2c(=O)n1-c1ccccc1 [GS-1101] (100 nM) | 102% |
| CC(=O)Nc1cccc(-n2c(=O)n(C3CC3)c(=O)c3c(Nc4ccc(I)cc4F)n(C)c(=O)c(C)c32)c1 [Trametinib] (2.5 nM) | 102% |
| Nc1ccccc1NC(=O)c1ccc(CNC(=O)OCc2cccnc2)cc1 [Entinostat] (100 nM) | 104% |
